Assay [1] has as its target NAMPT (human, recombinant, C-terminally His-tagged) (Homo sapiens, UniProt P43490). Briefly: Time-Resolved Fluorescence Resonance Energy Transfer (TR-FRET) Binding Assay of NAMPT. The note with it: without substrates; 6.8 nM NAMPT, 200 nM probe, 3 hours equilibration. How it is done: Determination of the utility of compounds having Formula (I) as binders to and inhibitors of NAMPT was performed using Time-Resolved Fluorescence Resonance Energy Transfer (TR-FRET) binding assays.
Time-Resolved Fluorescence Resonance Energy Transfer (TR-FRET) Binding Assay of NAMPT
Test compounds were serially diluted (typically 11 half log dilutions) in neat DMSO to 50× final concentrations prior to dilution with assay buffer (50 mM HEPES (NaOH), pH 7.5, 100 mM NaCl, 10 mM MgCl2, 1 mM DTT, 1% Glycerol) to 3× and 6% DMSO. Six μL were transferred to 384-well low-volume plates (Owens Corning #3673). To this, […] of a 1.5× solution containing enzyme, probe and antibody were added. Final concentrations in the 18 μL, reactions were 1× assay buffer, 2% DMSO, 6.8 nM NAMPT (human, recombinant, C-terminally His-tagged), 200 nM probe (a potent nicotinamide-competitive inhibitor conjugated to Oregon Green 488) and 1 nM Tb-anti-His antibody (Invitrogen # PV5895). Reactions were equilibrated at room temperature for 3 hours prior to reading on an Envision multi-label plate reader (Perkin Elmer; Ex=337 nm, Em=520 and 495 nm). Time-resolved FRET ratios (Em520/Em495) were normalized to controls, plotted as a function of compound concentration and fit with the four-parameter logistic equation to determine IC50s.

For the next assay, the target named is NAMPT (Homo sapiens, UniProt P43490). Briefly: TR-FRET Binding Assay of NAMPT with PRPP. The note with it: with 200 μM PRPP and 2.5 mM ATP; 2 nM NAMPT, 2 nM probe, 16 hours equilibration. How it is done:
Time-Resolved Fluorescence Resonance Energy Transfer (TR-FRET) Binding Assay of NAMPT with PRPP
Compound handling and data processing were identical to the assay in the absence of substrates (above). Final concentrations were 1× assay buffer, 2% DMSO, 2 nM NAMPT, 2 nM probe, 1 nM Tb-anti-His antibody (Invitrogen # PV5895), 200 μM PRPP and 2.5 mM ATP. Reactions were equilibrated for 16 hours prior to measurement to allow for potential enzymatic modification of test compounds.

The test system of the next assay is PC3 cells. As to the kind of experiment: NAMPT Cell Proliferation Assay. The class given is cell-based. Particulars: Homo sapiens, PC-3, 120 h, 5 days incubation, cell viability by Cell Titer Glo. The method in brief:
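Cell Titer Glo viability after 5-day exposure (37° C, 5% CO2); PC3, 500 cells/well, RPMI + 10% heat-inactivated FBS, overnight attachment before dosing. Dose range 10 μM to 1×10^−5 μM, 10-fold steps. IC50 = sigmoidal fit of % inhibition.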

This passage reports IC50 results from US9187472B2 (AbbVie Inc., priority 2012, dated 2015).

NAMPT, sequence (P43490 whole entry): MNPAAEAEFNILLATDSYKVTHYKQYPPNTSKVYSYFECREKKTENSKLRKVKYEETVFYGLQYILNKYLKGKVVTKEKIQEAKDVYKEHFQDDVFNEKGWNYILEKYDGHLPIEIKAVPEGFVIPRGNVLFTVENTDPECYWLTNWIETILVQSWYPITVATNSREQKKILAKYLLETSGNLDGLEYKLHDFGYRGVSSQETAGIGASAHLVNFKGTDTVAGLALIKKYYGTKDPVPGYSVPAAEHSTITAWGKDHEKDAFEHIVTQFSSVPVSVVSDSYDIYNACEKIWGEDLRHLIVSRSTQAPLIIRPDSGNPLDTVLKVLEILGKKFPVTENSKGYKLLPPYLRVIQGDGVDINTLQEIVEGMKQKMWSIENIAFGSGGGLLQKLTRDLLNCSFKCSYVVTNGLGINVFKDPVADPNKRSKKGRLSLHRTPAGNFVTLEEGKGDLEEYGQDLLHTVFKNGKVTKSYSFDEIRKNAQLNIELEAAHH
NAMPT (human, recombinant, C-terminally His-tagged), sequence (P43490 whole entry): as above

Regarding `O=C(NCc1ccn2ccnc2c1)c1ccc(C2CN(C(=O)c3cnccn3)C2)cc1` [Example 635, N-(imidazo[1,2-a]pyridin-7-ylmethyl)-4-[1-(pyrazin-2-ylcarbonyl)azetidin-3-yl]benzamide], the IC50 in assay [1] stood at 462 nM; on NAMPT it was 0.975 nM; in the assay with PC3 cells, 50 nM.

In the case of `O=C(NCc1ccn2ccnc2c1)c1cnc(-c2ccccc2)s1` [Example 361, N-(imidazo[1,2-a]pyridin-7-ylmethyl)-2-phenyl-1,3-thiazole-5-carboxamide], the values for the IC50 (in assay [1]; on NAMPT; in the assay on PC3 cells) were 5030 nM, 1.94 nM and more than 10000 nM, respectively.

In the case of `CC(C)Cn1cc(-c2ccc(NC(=O)NCc3ccn4ccnc4c3)cc2)cn1` [Example 486, 1-(imidazo[1,2-a]pyridin-7-ylmethyl)-3-{4-[1-(2-methylpropyl)-1H-pyrazol-4-yl]phenyl}urea], the IC50 in assay [1] is 91.7 nM; at NAMPT, 0.232 nM; in the assay on PC3 cells it was 23.3 nM.

For the molecule `CC(C)CCNC(=O)c1ccc(C(=O)NCc2ccn3ccnc3c2)cc1` [Example 393, N-(imidazo[1,2-a]pyridin-7-ylmethyl)-N′-(3-methylbutyl)benzene-1,4-dicarboxamide], the IC50 was more than 10000 nM in assay [1], 4.37 nM on NAMPT and more than 10000 nM with PC3 cells.

`O=C(NCc1ccc2nccn2c1)c1cnc(N(CC2CCOCC2)C(=O)C2CCOC2)s1` (stereo not drawn) [Example 143, N-(imidazo[1,2-a]pyridin-6-ylmethyl)-2-[(tetrahydrofuran-3-ylcarbonyl)(tetrahydro-2H-pyran-4-ylmethyl)amino]-1,3-thiazole-5-carboxamide]: the results for the IC50 (in assay [1]; on NAMPT; in the assay with PC3 cells) were 8710 nM, 2.03 nM and 80.8 nM, respectively.

Take `CC(C)C(C)C(=O)N1CCC(c2ccc(C(=O)NCc3ccn4ccnc4c3)cc2)C1` (stereo not drawn) [Example 615, 4-[1-(2,3-dimethylbutanoyl)pyrrolidin-3-yl]-N-(imidazo[1,2-a]pyridin-7-ylmethyl)benzamide]: the IC50 in assay [1] was 544 nM; on NAMPT, 0.79 nM; in the assay with PC3 cells, 18.8 nM.

Turning to `O=C(NCc1ccc2nccn2c1)c1ccc(OC2CCN(C(=O)C3CC3)CC2)cc1` [Example 161, 4-{[1-(cyclopropylcarbonyl)piperidin-4-yl]oxy}-N-(imidazo[1,2-a]pyridin-6-ylmethyl)benzamide], the IC50 in assay [1] is 1310 nM; at NAMPT it was 2.89 nM; in the assay with PC3 cells, 635 nM.

On to `O=C(NCc1ccn2ccnc2c1)Nc1ccc(OC2CCN(C(=O)c3cc(F)ccc3F)CC2)cc1` [Example 728, 1-(4-{[1-(2,5-difluorobenzoyl)piperidin-4-yl]oxy}phenyl)-3-(imidazo[1,2-a]pyridin-7-ylmethyl)urea], for which the IC50 worked out at 140 nM in assay [1], 0.496 nM on NAMPT and 21 nM with PC3 cells.

As for `O=C(NCc1ccn2ccnc2c1)Nc1ccc(O[C@@H]2CCN(C(=O)CC3CCOCC3)C2)cc1` [Example 338, 1-(imidazo[1,2-a]pyridin-7-ylmethyl)-3-(4-{[(3R)-1-(tetrahydro-2H-pyran-4-ylacetyl)pyrrolidin-3-yl]oxy}phenyl)urea], the figures for the IC50 (in assay [1]; at NAMPT; in the assay with PC3 cells) were 609 nM, 0.394 nM and 81 nM, respectively.

On to `O=C(NCc1ccn2ccnc2c1)c1ccc(C2CCN(C(=O)c3ccccc3OC(F)(F)F)CC2)cc1` [Example 706, N-(imidazo[1,2-a]pyridin-7-ylmethyl)-4-{1-[2-(trifluoromethoxy)benzoyl]piperidin-4-yl}benzamide], for which the IC50 turned out to be 84.1 nM in assay [1], 0.937 nM on NAMPT and 6.54 nM in the assay with PC3 cells.

On to `O=C(NCc1ccn2ccnc2c1)Nc1ccc(C2CCN(C(=O)[C@H]3CCOC3)C2)cc1` (stereo partly drawn) [Example 388, 1-(imidazo[1,2-a]pyridin-7-ylmethyl)-3-(4-{1-[(3S)-tetrahydrofuran-3-ylcarbonyl]pyrrolidin-3-yl}phenyl)urea], for which the IC50 in assay [1] came to 388 nM; at NAMPT, 0.506 nM; in the assay on PC3 cells it was 122 nM.

Turning to `Cn1nccc1C(=O)N1CCC(c2ccc(C(=O)NCc3ccn4ccnc4c3)s2)C1` (stereo not drawn) [Example 799, N-(imidazo[1,2-a]pyridin-7-ylmethyl)-5-{1-[(1-methyl-1H-pyrazol-5-yl)carbonyl]pyrrolidin-3-yl}thiophene-2-carboxamide], the IC50 in assay [1] came out at 102 nM; on NAMPT it was 0.406 nM; in the assay with PC3 cells, 6.96 nM.

Turning to `CCOCC(=O)N1CC=C(c2ccc(NC(=O)Nc3ccc4nccn4c3)cc2)CC1` [Example 31, 1-{4-[1-(ethoxyacetyl)-1,2,3,6-tetrahydropyridin-4-yl]phenyl}-3-imidazo[1,2-a]pyridin-6-ylurea], the results for the IC50 (in assay [1]; on NAMPT; with PC3 cells) were 739 nM, 0.311 nM and 107 nM, respectively.

Regarding `O=C(NCc1ccc2nccn2c1)c1cnc(N2Cc3ccccc3C2)s1` [Example 88, 2-(1,3-dihydro-2H-isoindol-2-yl)-N-(imidazo[1,2-a]pyridin-6-ylmethyl)-1,3-thiazole-5-carboxamide], the figures for the IC50 (in assay [1]; on NAMPT; in the assay with PC3 cells) were 2850 nM, 8.55 nM and 8110 nM, respectively.

Take `O=C(NCc1cn2ccnc2cn1)c1ccc(C2CCN(C(=O)c3ccccc3F)CC2)cc1` [Example 826, 4-[1-(2-fluorobenzoyl)piperidin-4-yl]-N-(imidazo[1,2-a]pyrazin-6-ylmethyl)benzamide]: the results for the IC50 (in assay [1]; on NAMPT; in the assay on PC3 cells) were 7.79 nM, 0.897 nM and 6.79 nM, respectively.

Turning to `O=C(NCc1ccn2ccnc2c1)Nc1ccc(O[C@@H]2CCN(C(=O)c3ccccc3Cl)C2)cc1` [Example 695, 1-(4-{[(3R)-1-(2-chlorobenzoyl)pyrrolidin-3-yl]oxy}phenyl)-3-(imidazo[1,2-a]pyridin-7-ylmethyl)urea], the IC50 amounted to 13.7 nM in assay [1], 0.621 nM at NAMPT and 5.82 nM in the assay on PC3 cells.

As to `O=C(CC1CCCC1)Nc1ccc(C(=O)NCc2ccn3ccnc3c2)c(F)c1` [Example 463, 4-[(cyclopentylacetyl)amino]-2-fluoro-N-(imidazo[1,2-a]pyridin-7-ylmethyl)benzamide], the IC50 stood at 314 nM in assay [1], 0.529 nM on NAMPT and 234 nM in the assay with PC3 cells.

For the molecule `CC[C@H](C)C(=O)NC1(c2ccc(C(=O)NCc3ccn4ccnc4c3)s2)COC1` [Example 408, N-(imidazo[1,2-a]pyridin-7-ylmethyl)-5-(3-{[(2S)-2-methylbutanoyl]amino}oxetan-3-yl)thiophene-2-carboxamide], the results for the IC50 (in assay [1]; at NAMPT; in the assay on PC3 cells) were 276 nM, 0.725 nM and 19.2 nM, respectively.

As for `O=C(NC1(c2ccc(C(=O)NCc3ccn4ccnc4c3)s2)COC1)c1ccccc1` [Example 325, 5-[3-(benzoylamino)oxetan-3-yl]-N-(imidazo[1,2-a]pyridin-7-ylmethyl)thiophene-2-carboxamide], the IC50 was 180 nM in assay [1], 0.278 nM on NAMPT and 32.9 nM in the assay with PC3 cells.

With `CC(C)C(=O)N1CCC(Oc2ccc(C(=O)NCc3ccn4ccnc4c3)cc2)CC1` [Example 412, N-(imidazo[1,2-a]pyridin-7-ylmethyl)-4-{[1-(2-methylpropanoyl)piperidin-4-yl]oxy}benzamide], the IC50 in assay [1] amounted to 1250 nM; on NAMPT it was 0.424 nM; in the assay on PC3 cells, 978 nM.

Take `O=C(NCc1ccn2ccnc2c1)Nc1ccc(OC2CCN(C(=O)c3ccccc3)CC2)cc1` [Example 445, 1-{4-[(1-benzoylpiperidin-4-yl)oxy]phenyl}-3-(imidazo[1,2-a]pyridin-7-ylmethyl)urea]: the half-maximal inhibitory concentration (IC50) in assay [1] amounted to 110 nM; on NAMPT, 0.212 nM; in the assay on PC3 cells, 22.9 nM.

In the case of `O=C(NCc1cn2ccnc2cn1)c1ccc(C2CCN(C(=O)c3cc(F)ccc3F)CC2)cc1` [Example 813, 4-[1-(2,5-difluorobenzoyl)piperidin-4-yl]-N-(imidazo[1,2-a]pyrazin-6-ylmethyl)benzamide], the IC50 in assay [1] was 11.2 nM; at NAMPT it was 1.53 nM; in the assay with PC3 cells, 2.21 nM.

For `CC1(Cn2cc(-c3ccc(C(=O)NCc4ccc5ncnn5c4)o3)cn2)CCOCC1` [Example 822, 5-{1-[(4-methyltetrahydro-2H-pyran-4-yl)methyl]-1H-pyrazol-4-yl}-N-([1,2,4]triazolo[1,5-a]pyridin-6-ylmethyl)furan-2-carboxamide], the results for the IC50 (in assay [1]; on NAMPT; in the assay on PC3 cells) were 104 nM, 3.46 nM and 71.1 nM, respectively.
